Values quoted from earlier work in patent publication US8815303B2, “Multifunctional compositions having combined insecticidal, miticidal and fungicidal activity” (priority 2004, dated 2014).
Where two headings read alike, the source gives them in different places.

Key:
rose powdery mildew = settings: intact plants, after one adaxial foliar spray application
[1] = tested on: powdery mildew and/or blackspot; settings: for management of powdery mildew and/or blackspot: weekly sprays of 0.5% (w/w) aqueous solution
[2] = 0.5% concentration (the more effective dose)

Row | SMILES | host epidermal layers (rose powdery mildew) | superficial pathogen structures (rose powdery mildew) | powdery mildew severity ([1]; 0.25% concentration) | powdery mildew severity [1, 2] | management of powdery mildew and/or blackspot [1]
1 | O=C([O-])O.[K+] [potassium bicarbonate] | recover completely from infection | eradicated | significantly reduce | significantly reduce | significantly managed
2 | O=C([O-])O.[Na+] [sodium bicarbonate] | – | – | significantly reduce | significantly reduce | significantly managed
